Patent publication US12139488B2, “Pyrido[3,2-d]pyrimidine compounds uses thereof for treating a proliferative disease” (Universite de Montreal, priority 2021, dated 2024)
Like-named read-outs stand apart in the source and are kept apart here.

Tests used:
Assay type in all cases: cell-based, human
[1] = test system: pERK in HepG2 cells (NRAS-Q61L); test: Phospho-ERK inhibition (AlphaLISA), HepG2; conditions: for HepG2 pERK % Ymin: HepG2, value in parentheses; for IC50: HepG2
Protocol: (§1) All cancer cell lines (A375, A101D, A2058, RKO, HT29 SK-MEL 30, IPC298, HepG2, HCT-116, Lovo, SWV620, SW480, NCI-H358, NCI-H2122, Calu-6, NCIH2087, NCIH1755, NCIH1666 and Mewo) were obtained from ATCC and cultured in RPMI-1640 medium (Gibco) supplemented with 5% heat inactivated fetal bovine serum (FBS, Wisent) at 37° C. under 5% CO2. Cells were maintained in T175 flasks (Greiner). They were passaged by removing the culture medium, washing once in 10 mL of room temperature Phosphate Buffered Saline (PBS; Wisent) and incubating at 37° C. with 2 mL of 0.05% Trypsin (Thermo-Fisher). Trypsin was then inactivated by adding complete growth medium and the cells were then replated in a T175 culture dish at the appropriate dilution. All cell lines were routinely tested for mycoplasma contamination. Tissue type and mutational status of each cell line can be found in Table B.
(§2) AlphaLISA® SureFire® Ultra™ p-ERK 1/2 (Thr202/Tyr204) analysis was conducted on cells plated in 100 μL of complete RPMI-1640 growth medium in 96-well flat-bottomed transparent dishes (Costar) at a density indicated in Table C. Cells were maintained overnight at 37° C. under 5% CO2 before treatment with compounds' dilution series for one hour. The cell density in cells/cm^2 corresponds to cell number divided by the area of one well of a 96-well plate ([…]).
(§3) In a dilution series 100 μL/well of test substance dilution prepared in complete RPMI-1640 growth media was added to the cells. The dilution series is selected so that ten concentrations cover a range from 10 μM to 0.33 nM. If necessary the initial concentration of 10 μM is increased to 100 μM or lowered to 1 μM (as in the case of A375 and H1666 cells, which are generally more sensitive to the compounds) and further dilution is carried out accordingly. The final concentration of DMSO in the assay is set at 0.5%.
(§4) After treatment, media was removed and cells were lysed in 50 μL of 1× AlphaScreen Ultra Lysis Buffer (Perkin Elmer). The AlphaLISA® SureFire® Ultra™ p-ERK 1/2 (Thr202/Tyr2O4) (PerkinElmer) reactions were performed with 5 μL of cell lysate according to the manufacturer's specifications in 384-well proxyplates (Perkin Elmer) followed by overnight incubation of the reactions at room temperature in a humidified chamber. After completion of the reactions, the signals were recorded on an EnVision plate reader (Perkin Elmer) using built in AlphaLISA® settings.
(§5) The effect of each compound dilution on the pERK signal was expressed in % inhibition and calculated as follows. An internal 100% inhibition control ([…] trametinib, cat #HY-10999; MedChem Express; CAS #871700-17-3) was included in each plate and used as a measure of pERK background. First, the value obtained for trametinib was subtracted from each data point. The average of DMSO (vehicle) controls (set as 0% inhibition) was established and used to calculate % inhibition: % inhibition=100*(1-((pERK signalcompound)/(pERK signalDMSO)))
(§6) The ability of each compound to inhibit pERK signal was expressed as an IC50 value obtained by plotting the inhibition values for each data point of a dilution series and fitting the obtained curves using a log(agonist) versus response-variable slope (four parameters) function using GraphPadPrism (V7.0) or Dotmatics Screening Ultra platform.
(§7) When present, paradoxical pERK induction is inferred from the negative % inhibition values observed in the pERK IC50 curves of a compound.

[2] = test system: pERK in NCIH1755 cells (BRAF G469A); test: Phospho-ERK inhibition (AlphaLISA), NCIH1755; conditions: for NCIH1755 pERK % Ymin: NCIH1755, value in parentheses
Protocol: as §1, §2, §3, §4, §5, §6, §7

HT29 cells (BRAF V600E) = test: Proliferation inhibition (CellTiter-Glo), HT29; conditions: HT-29, 3 days, read-out: HT-29 Prolif. EC50
Protocol: as §1
(§8) CellTiter-Glo® viability analysis was conducted on cells plated in 100 μL of complete RPMI-1640 growth medium in 96-well flat-bottomed white opaque plates (Greiner or Croning) at a density indicated in Table E (for each CCL, number of cells plated per well of a 96-well plate to perform the CellTiter-Glo® cell viability assay). The cell density in cells/cm^2 would correspond to cell number divided by the area of one well of a 96-well plate (0.32 cm^2). […]
(§9) After 3 days of incubation, the growth media were removed by aspiration and 60 μL of diluted CellTiter-Glo® reagent (10 μL CellTiter-Glo® reagent+50 μL of PBS) was added to each well. […] Luminescence signals were then acquired on a Synergy Neo2 plate reader (Biotek).
(§10) The effect of each compound dilution on the proliferation of cancer cell lines was expressed in % inhibition and calculated as follows. […]
as §6, with “proliferation” for “pERK signal”, “a EC50” for “an IC50”, “effect” for “inhibition”

HepG2 cells (NRAS-Q61L) = test: Proliferation inhibition (CellTiter-Glo), HepG2; conditions: HepG2, 3 days, read-out: HepG2 Prolif. EC50
Protocol: as §1, §8, §9, §10
as §6, with “proliferation” for “pERK signal”, “a EC50” for “an IC50”, “effect” for “inhibition”

Calu-6 cells (KRAS Q61K) = test: Proliferation inhibition (CellTiter-Glo), Calu-6; conditions: Calu6, 3 days, read-out: Calu6 Prolif. EC50
Protocol: as §1, §8, §9, §10
as §6, with “proliferation” for “pERK signal”, “a EC50” for “an IC50”, “effect” for “inhibition”

[3] = test system: NCIH2087 cells (BRAF L597V; KRAS Q61K); test: Proliferation inhibition (CellTiter-Glo), NCIH2087; conditions: NCIH2087, 3 days, read-out: NCIH2087 Prolif. EC50
Protocol: as §1, §8, §9, §10
as §6, with “proliferation” for “pERK signal”, “a EC50” for “an IC50”, “effect” for “inhibition”

SMILES	HepG2 pERK % Ymin [1] [%]	IC50 ([1]; Homo sapiens) [nM]	IC50 ([2]; Homo sapiens, NCI-H1755) [nM]	NCIH1755 pERK % Ymin [2] [%]	EC50 (HT29 cells (BRAF V600E); Homo sapiens, 72 h) [nM]	EC50 (HepG2 cells (NRAS-Q61L); Homo sapiens, 72 h) [nM]	EC50 (Calu-6 cells (KRAS Q61K); Homo sapiens, Calu-6, 72 h) [nM]	EC50 ([3]; Homo sapiens, NCI-H2087, 72 h) [nM]	IC50 [1] [nM]	IC50 ([2]; NCIH1755) [nM]	EC50 (HT29 cells (BRAF V600E)) [nM]	EC50 (HepG2 cells (NRAS-Q61L)) [nM]	EC50 (Calu-6 cells (KRAS Q61K)) [nM]	EC50 [3] [nM]
Cc1ccc2c(Nc3cccc(Cl)c3F)nccc2c1NC(=O)c1csc2c(N)ncnc12 [Belvarafenib, reference compound]	−36	30 to 300	30 to 300	−79	< 30	< 30	< 30	< 30						
Nc1cccc2c1ncn2-c1ccc2ncnc(Nc3c(F)ccc(NS(=O)(=O)c4cccc(Cl)c4Cl)c3F)c2n1 [Example 99]	7			−8					< 30	< 30	< 30	< 30	300 to 3000	300 to 3000
CC1(O)CCN(c2cccc3c2ncn3-c2ccc3ncnc(Nc4c(F)ccc(NS(=O)(=O)c5cccc(Cl)c5Cl)c4F)c3n2)CC1 [Example 524]	2			−13					30 to 300	30 to 300	< 30	< 30	300 to 3000	< 30
